Measurements published in ChEMBL document CHEMBL3045173, “Synthesis, antibacterial, and antitubercular studies of some novel isatin derivatives” (2012).
In brackets after ≈: the same amount, converted by molar mass.

Key:
Format in all cases: functional
[1] = system: Mycobacterium tuberculosis; assay: Antimicrobial activity against Mycobacterium tuberculosis H37Rv ATCC 27294 after 7 days by MABA; conditions: for MIC90: Mycobacterium tuberculosis, H37Rv ATCC 27294, 168 h
Bacillus cereus [2] = assay: Antimicrobial activity against Bacillus cereus ATCC 11778 after 24 hr by agar streak dilution method; conditions: ATCC 11778, 24 h
Bacillus cereus [3] = assay: Antimicrobial activity against Bacillus cereus ATCC 11778 at 100 ug/ml after 24 hr by paper disk diffusion method; conditions: ATCC 11778, 24 h, read-out: IZ
[4] = system: Staphylococcus epidermidis; assay: Antimicrobial activity against Staphylococcus epidermidis ATCC 155 at 100 ug/ml after 24 hr by paper disk diffusion method; conditions: ATCC 155, 24 h, read-out: IZ
Micrococcus luteus [5] = assay: Antimicrobial activity against Micrococcus luteus ATCC 4698 after 24 hr by agar streak dilution method; conditions: ATCC 4698, 24 h
Staphylococcus aureus [6] = assay: Antimicrobial activity against Staphylococcus aureus ATCC 9144 at 100 ug/ml after 24 hr by paper disk diffusion method; conditions: ATCC 9144, 24 h, read-out: IZ
Staphylococcus aureus [7] = assay: Antimicrobial activity against Staphylococcus aureus ATCC 9144 after 24 hr by agar streak dilution method; conditions: ATCC 9144, 24 h
[8] = system: Staphylococcus epidermidis; assay: Antimicrobial activity against Staphylococcus epidermidis ATCC 155 after 24 hr by agar streak dilution method; conditions: ATCC 155, 24 h
Micrococcus luteus [9] = assay: Antimicrobial activity against Micrococcus luteus ATCC 4698 at 100 ug/ml after 24 hr by paper disk diffusion method; conditions: ATCC 4698, 24 h, read-out: IZ

O=C1/C(=N\c2ccc(/N=C/c3ccc([N+](=O)[O-])cc3)cc2)c2ccccc2N1Cc1ccccc1
inhibition (INH) [1]: 80%
MIC (Bacillus cereus [2]): 19.2 µg/mL (≈ 41.7 µM)
zone of inhibition at 100 µg/mL (Bacillus cereus [3]): 16 mm
zone of inhibition at 100 µg/mL [4]: 19 mm
MIC (Micrococcus luteus [5]): 27.8 µg/mL (≈ 60.4 µM)
zone of inhibition at 100 µg/mL (Staphylococcus aureus [6]): 15 mm
MIC (Staphylococcus aureus [7]): 25.2 µg/mL (≈ 54.7 µM)
MIC [8]: 20.4 µg/mL (≈ 44.3 µM)
zone of inhibition at 100 µg/mL (Micrococcus luteus [9]): 13 mm

O=C1/C(=N\c2ccc(/N=C/c3ccc(Br)cc3)cc2)c2ccccc2N1Cc1ccccc1
inhibition (INH) [1]: 96%
MIC90 [1]: 4.26 µM (≈ 2.11 µg/mL)
MIC (Bacillus cereus [2]): 15.3 µg/mL (≈ 30.9 µM)
zone of inhibition at 100 µg/mL (Bacillus cereus [3]): 17 mm
zone of inhibition at 100 µg/mL [4]: 18 mm
MIC (Micrococcus luteus [5]): 16.3 µg/mL (≈ 33 µM)
zone of inhibition at 100 µg/mL (Staphylococcus aureus [6]): 19 mm
MIC (Staphylococcus aureus [7]): 19.3 µg/mL (≈ 39 µM)
MIC [8]: 21.2 µg/mL (≈ 42.9 µM)
zone of inhibition at 100 µg/mL (Micrococcus luteus [9]): 20 mm

O=C1/C(=N\c2ccc(/N=C/c3ccc(Cl)cc3)cc2)c2ccccc2N1Cc1ccccc1
inhibition (INH) [1]: 90%
MIC (Bacillus cereus [2]): 12.1 µg/mL (≈ 26.9 µM)
zone of inhibition at 100 µg/mL (Bacillus cereus [3]): 19 mm
zone of inhibition at 100 µg/mL [4]: 25 mm
MIC (Micrococcus luteus [5]): 11.2 µg/mL (≈ 24.9 µM)
zone of inhibition at 100 µg/mL (Staphylococcus aureus [6]): 21 mm
MIC (Staphylococcus aureus [7]): 10.4 µg/mL (≈ 23.1 µM)
MIC [8]: 9.8 µg/mL (≈ 21.8 µM)
zone of inhibition at 100 µg/mL (Micrococcus luteus [9]): 23 mm

O=C1/C(=N\c2ccc(/N=C/c3ccccc3O)cc2)c2ccccc2N1Cc1ccccc1
inhibition (INH) [1]: 90%
MIC (Bacillus cereus [2]): 16.7 µg/mL (≈ 38.7 µM)
zone of inhibition at 100 µg/mL (Bacillus cereus [3]): 18 mm
zone of inhibition at 100 µg/mL [4]: 20 mm
MIC (Micrococcus luteus [5]): 20.6 µg/mL (≈ 47.7 µM)
zone of inhibition at 100 µg/mL (Staphylococcus aureus [6]): 20 mm
MIC (Staphylococcus aureus [7]): 13.2 µg/mL (≈ 30.6 µM)
MIC [8]: 17.6 µg/mL (≈ 40.8 µM)
zone of inhibition at 100 µg/mL (Micrococcus luteus [9]): 17 mm

COc1ccc(/C=N/c2ccc(/N=C3\C(=O)N(Cc4ccccc4)c4ccccc43)cc2)cc1
inhibition (INH) [1]: 80%
MIC (Bacillus cereus [2]): 17.1 µg/mL (≈ 38.4 µM)
zone of inhibition at 100 µg/mL (Bacillus cereus [3]): 17 mm
zone of inhibition at 100 µg/mL [4]: 23 mm
MIC (Micrococcus luteus [5]): 12.4 µg/mL (≈ 27.8 µM)
zone of inhibition at 100 µg/mL (Staphylococcus aureus [6]): 19 mm
MIC (Staphylococcus aureus [7]): 13.6 µg/mL (≈ 30.5 µM)
MIC [8]: 14.8 µg/mL (≈ 33.2 µM)
zone of inhibition at 100 µg/mL (Micrococcus luteus [9]): 20 mm

COc1ccc(/C=N/c2ccc(/N=C3\C(=O)N(Cc4ccccc4)c4ccccc43)cc2)cc1OC
inhibition (INH) [1]: 73%
MIC (Bacillus cereus [2]): 21.2 µg/mL (≈ 44.6 µM)
zone of inhibition at 100 µg/mL (Bacillus cereus [3]): 16 mm
zone of inhibition at 100 µg/mL [4]: 18 mm
MIC (Micrococcus luteus [5]): 19.6 µg/mL (≈ 41.2 µM)
zone of inhibition at 100 µg/mL (Staphylococcus aureus [6]): 22 mm
MIC (Staphylococcus aureus [7]): 11.8 µg/mL (≈ 24.8 µM)
MIC [8]: 20.2 µg/mL (≈ 42.5 µM)
zone of inhibition at 100 µg/mL (Micrococcus luteus [9]): 17 mm

COc1cc(/C=N/c2ccc(/N=C3\C(=O)N(Cc4ccccc4)c4ccccc43)cc2)ccc1O
inhibition (INH) [1]: 80%
MIC (Bacillus cereus [2]): 18.6 µg/mL (≈ 40.3 µM)
zone of inhibition at 100 µg/mL (Bacillus cereus [3]): 17 mm
zone of inhibition at 100 µg/mL [4]: 22 mm
MIC (Micrococcus luteus [5]): 18.7 µg/mL (≈ 40.5 µM)
zone of inhibition at 100 µg/mL (Staphylococcus aureus [6]): 19 mm
MIC (Staphylococcus aureus [7]): 18.2 µg/mL (≈ 39.4 µM)
MIC [8]: 13.8 µg/mL (≈ 29.9 µM)
zone of inhibition at 100 µg/mL (Micrococcus luteus [9]): 19 mm

CN(C)c1ccc(/C=N/c2ccc(/N=C3\C(=O)N(Cc4ccccc4)c4ccccc43)cc2)cc1
inhibition (INH) [1]: 79%
MIC (Bacillus cereus [2]): 20.7 µg/mL (≈ 45.1 µM)
zone of inhibition at 100 µg/mL (Bacillus cereus [3]): 15 mm
zone of inhibition at 100 µg/mL [4]: 14 mm
MIC (Micrococcus luteus [5]): 19.7 µg/mL (≈ 43 µM)
zone of inhibition at 100 µg/mL (Staphylococcus aureus [6]): 17 mm
MIC (Staphylococcus aureus [7]): 22.8 µg/mL (≈ 49.7 µM)
MIC [8]: 24 µg/mL (≈ 52.3 µM)
zone of inhibition at 100 µg/mL (Micrococcus luteus [9]): 18 mm

O=C(O)c1cn(C2CC2)c2cc(N3CCNCC3)c(F)cc2c1=O [CIPROFLOXACIN]
MIC (Bacillus cereus [2]): 0.3 µg/mL (≈ 0.905 µM)
zone of inhibition at 100 µg/mL (Bacillus cereus [3]): 25 mm
zone of inhibition at 100 µg/mL [4]: 29 mm
MIC (Micrococcus luteus [5]): 0.1 µg/mL (≈ 0.302 µM)
zone of inhibition at 100 µg/mL (Staphylococcus aureus [6]): 25 mm
MIC (Staphylococcus aureus [7]): 0.2 µg/mL (≈ 0.604 µM)
MIC [8]: 0.35 µg/mL (≈ 1.06 µM)
zone of inhibition at 100 µg/mL (Micrococcus luteus [9]): 30 mm

NNC(=O)c1ccncc1 [ISONIAZID]
inhibition (INH) [1]: 100%
MIC90 [1]: 0.74 µM (≈ 0.101 µg/mL)

COc1c(N2C[C@@H]3CCCN[C@@H]3C2)c(F)cc2c(=O)c(C(=O)O)cn(C3CC3)c12 [MOXIFLOXACIN]
inhibition (INH) [1]: 100%
MIC90 [1]: 0.25 µM (≈ 0.1 µg/mL)

O=[N+]([O-])c1cn2c(n1)OC[C@@H](OCc1ccc(OC(F)(F)F)cc1)C2 [PRETOMANID]
inhibition (INH) [1]: 100%
MIC90 [1]: 0.25 µM (≈ 0.0898 µg/mL)

CO[C@H]1/C=C/O[C@@]2(C)Oc3c(C)c(O)c4c(O)c(c(/C=N/N5CCN(C)CC5)c(O)c4c3C2=O)NC(=O)/C(C)=C\C=C\[C@H](C)[C@H](O)[C@@H](C)[C@@H](O)[C@@H](C)[C@H](OC(C)=O)[C@@H]1C [RIFAMPIN]
inhibition (INH) [1]: 100%
MIC90 [1]: 0.06 µM (≈ 0.0494 µg/mL)
